# According to patent US6737383B1, “Herbicidal oxadiazolidines” (priority 1999, dated 2004):
# Columns and labels:
# cocklebur = assay: Test B pre/postemergence cocklebur; format: in vivo, Xanthium strumarium
# Procedure, shortened: (§1)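 Test chemicals in a non-phytotoxic solvent mixture with surfactant were sprayed preemergence onto planted seeds and postemergence onto plants 2 to 18 cm tall (1- to 4-leaf stage). After twelve to sixteen days in a greenhouse, injury was visually rated against untreated controls from 0 (no effect) to 10 (complete control).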
# smallflower flatsedge = assay: Test B flood test smallflower flatsedge; format: in vivo, Cyperus difformis
# Procedure, shortened: (§2)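 Each value is a visual injury score relative to controls, with 10 meaning complete control and 0 no effect. Evaluation took place twelve to sixteen days after the 2-leaf-stage plants were treated and kept in the greenhouse.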
# rape = assay: Test B pre/postemergence rape; format: in vivo, Brassica napus
# Procedure, shortened: as §1
# velvetleaf = assay: Test B pre/postemergence velvetleaf; format: in vivo, Abutilon theophrasti
# Procedure, shortened: as §1
# surinam grass = assay: Test B pre/postemergence surinam grass; format: in vivo, Brachiaria decumbens
# Procedure, shortened: as §1
# wheat = assay: Test B pre/postemergence wheat; format: in vivo, Triticum aestivum
# Procedure, shortened: as §1
# duck salad = assay: Test B flood test duck salad; format: in vivo, Heteranthera limosa
# Procedure, shortened: as §2
# sugar beet = assay: Test B pre/postemergence sugar beet; format: in vivo, Beta vulgaris
# Procedure, shortened: as §1
# crabgrass = assay: Test B pre/postemergence crabgrass; format: in vivo, Digitaria sanguinalis
# Procedure, shortened: as §1
# bedstraw = assay: Test B pre/postemergence bedstraw; format: in vivo, Galium aparine
# Procedure, shortened: as §1
# wild oat = assay: Test B pre/postemergence wild oat; format: in vivo, Avena fatua
# Procedure, shortened: as §1
# purple nutsedge = assay: Test B pre/postemergence purple nutsedge; format: in vivo, Cyperus rotundus
# Procedure, shortened: as §1
# corn = assay: Test B pre/postemergence corn; format: in vivo, Zea mays
# Procedure, shortened: as §1
# blackgrass = assay: Test B pre/postemergence blackgrass; format: in vivo, Alopecurus myosuroides
# Procedure, shortened: as §1
# morningglory = assay: Test B pre/postemergence morningglory; format: in vivo, Ipomoea hederacea
# Procedure, shortened: as §1
# pigweed = assay: Test B pre/postemergence pigweed; format: in vivo, Amaranthus retroflexus
# Procedure, shortened: as §1
# [1] = Preemergence, Rate 62 g/ha, scale of 0 to 10 where 0 is no effect and 10 is complete control
# [2] = Preemergence, Rate 250 g/ha, scale of 0 to 10 where 0 is no effect and 10 is complete control
# [3] = Preemergence, Rate 500 g/ha, scale of 0 to 10 where 0 is no effect and 10 is complete control
# [4] = Rate 62 g/ha, Postemergence, scale 0 to 10, 0 no effect, 10 complete control
# [5] = Rate 125 g/ha, Postemergence, scale of 0 to 10 where 0 is no effect and 10 is complete control
# [6] = Rate 250 g/ha, Postemergence, scale of 0 to 10 where 0 is no effect and 10 is complete control
# [7] = Rate 500 g/ha, Postemergence, scale 0 to 10, 0 no effect, 10 complete control
# [8] = Rate 62 g/ha, headed Pre-emergence (flood test species), scale 0 to 10 (0 no effect, 10 complete control)
# [9] = Rate 125 g/ha, Pre-emergence, flood test species, scale 0 to 10 where 0 is no effect and 10 is complete control
# [10] = Rate 250 g/ha, Pre-emergence, flood-test species, scale 0 to 10, 0 is no effect, 10 is complete control
# [11] = Rate 500 g/ha, Pre-emergence, flood test species, scale 0 to 10 (0 no effect, 10 complete control)
compound,measurement,setting,value
CC(C)N(C(=O)n1oc(=O)n(C2CC2)c1=O)c1ccc(F)cc1F [Compound 299],Cocklebur plant response rating,cocklebur; [1],0
same,Cocklebur plant response rating (0 to 10 scale),"cocklebur; Preemergence, Rate 125 g/ha",0
same,Cocklebur plant response rating,cocklebur; [2],0
same,Cocklebur plant response rating,cocklebur; [3],0
same,Cocklebur plant response rating,cocklebur; [4],0
same,Cocklebur plant response rating,cocklebur; [5],2
same,"Plant response rating, Cocklebur",cocklebur; [6],4
same,Cocklebur plant response rating,cocklebur; [7],5
same,S. Flatsedge plant response rating,smallflower flatsedge; [8],0
same,S. Flatsedge plant response rating,smallflower flatsedge; [9],0
same,S. Flatsedge plant response rating,smallflower flatsedge; [10],0
same,S. Flatsedge plant response rating,smallflower flatsedge; [11],0
same,Rape plant response rating,rape; [1],1
same,Rape plant response rating (0 to 10 scale),"rape; Preemergence, Rate 125 g/ha",8
same,Rape plant response rating,rape; [2],10
same,Rape plant response rating,rape; [3],10
same,Rape plant response rating,rape; [4],1
same,Rape plant response rating,rape; [5],3
same,"Plant response rating, Rape",rape; [6],7
same,Velvetleaf plant response rating,velvetleaf; [1],6
same,Velvetleaf plant response rating (0 to 10 scale),"velvetleaf; Preemergence, Rate 125 g/ha",7
same,Velvetleaf plant response rating,velvetleaf; [2],8
same,Velvetleaf plant response rating,velvetleaf; [3],8
same,Velvetleaf plant response rating,velvetleaf; [4],0
same,Velvetleaf plant response rating,velvetleaf; [5],0
same,"Plant response rating, Velvetleaf",velvetleaf; [6],6
same,B. signalgrass plant response rating,surinam grass; [1],6
same,"B. signalgrass plant response rating (0 to 10 scale, 0 is no effect, 10 is complete control)","surinam grass; Preemergence, Rate 125 g/ha",9
same,B. signalgrass plant response rating,surinam grass; [2],9
same,B. signalgrass plant response rating,surinam grass; [3],10
same,B. signalgrass plant response rating,surinam grass; [4],0
same,B. signalgrass plant response rating,surinam grass; [5],3
same,"Plant response rating, B. signalgrass",surinam grass; [6],7
same,B. signalgrass plant response rating,surinam grass; [7],8
same,Wheat plant response rating,wheat; [1],3
same,Wheat plant response rating (0 to 10 scale),"wheat; Preemergence, Rate 125 g/ha",7
same,Wheat plant response rating,wheat; [2],8
same,Wheat plant response rating,wheat; [3],8
same,Wheat plant response rating,wheat; [4],0
same,Wheat plant response rating,wheat; [5],3
same,"Plant response rating, Wheat",wheat; [6],6
same,Ducksalad plant response rating,duck salad; [8],0
same,Ducksalad plant response rating,duck salad; [9],0
same,Ducksalad plant response rating,duck salad; [10],0
same,Ducksalad plant response rating,duck salad; [11],0
same,Sugarbeets plant response rating,sugar beet; [1],3
same,Sugarbeets plant response rating (0 to 10 scale),"sugar beet; Preemergence, Rate 125 g/ha",8
same,Sugarbeets plant response rating,sugar beet; [2],9
same,Sugarbeets plant response rating,sugar beet; [3],10
same,Sugarbeets plant response rating,sugar beet; [4],2
same,Sugarbeets plant response rating,sugar beet; [5],3
same,"Plant response rating, Sugarbeets",sugar beet; [6],4
same,Crabgrass plant response rating,crabgrass; [1],6
same,Crabgrass plant response rating (0 to 10 scale),"crabgrass; Preemergence, Rate 125 g/ha",9
same,Crabgrass plant response rating,crabgrass; [2],9
same,Crabgrass plant response rating,crabgrass; [3],9
same,Crabgrass plant response rating,crabgrass; [4],0
same,Crabgrass plant response rating,crabgrass; [5],3
same,"Plant response rating, Crabgrass",crabgrass; [6],4
same,Bedstraw plant response rating,bedstraw; [1],10
same,Bedstraw plant response rating (0 to 10 scale),"bedstraw; Preemergence, Rate 125 g/ha",10
same,Bedstraw plant response rating,bedstraw; [2],10
same,Bedstraw plant response rating,bedstraw; [3],10
same,Bedstraw plant response rating,bedstraw; [4],2
same,Bedstraw plant response rating,bedstraw; [5],7
same,Wild oats plant response rating,wild oat; [1],2
same,Wild oats plant response rating (0 to 10 scale),"wild oat; Preemergence, Rate 125 g/ha",7
same,Wild oats plant response rating,wild oat; [2],8
same,Wild oats plant response rating,wild oat; [3],8
same,Wild oats plant response rating,wild oat; [4],0
same,Wild oats plant response rating,wild oat; [5],0
same,"Plant response rating, Wild oats",wild oat; [6],3
same,Nutsedge plant response rating,purple nutsedge; [1],0
same,Nutsedge plant response rating (0 to 10 scale),"purple nutsedge; Preemergence, Rate 125 g/ha",0
same,Nutsedge plant response rating,purple nutsedge; [4],0
same,Nutsedge plant response rating,purple nutsedge; [5],0
same,"Plant response rating, Nutsedge",purple nutsedge; [6],0
same,Corn plant response rating,corn; [1],0
same,Corn plant response rating (0 to 10 scale),"corn; Preemergence, Rate 125 g/ha",0
same,Corn plant response rating,corn; [2],8
same,Corn plant response rating,corn; [3],8
same,Corn plant response rating,corn; [4],0
same,Corn plant response rating,corn; [5],0
same,"Plant response rating, Corn",corn; [6],3
same,Corn plant response rating,corn; [7],4
same,Blackgrass plant response rating,blackgrass; [1],9
same,Blackgrass plant response rating (0 to 10 scale),"blackgrass; Preemergence, Rate 125 g/ha",10
same,Blackgrass plant response rating,blackgrass; [2],10
same,Blackgrass plant response rating,blackgrass; [3],10
same,Blackgrass plant response rating,blackgrass; [4],7
same,Blackgrass plant response rating,blackgrass; [5],8
same,"Plant response rating, Blackgrass",blackgrass; [6],8
same,Blackgrass plant response rating,blackgrass; [7],9
same,Morningglory plant response rating,morningglory; [1],0
same,Morningglory plant response rating (0 to 10 scale),"morningglory; Preemergence, Rate 125 g/ha",2
same,Morningglory plant response rating,morningglory; [2],6
same,Morningglory plant response rating,morningglory; [3],7
same,Morningglory plant response rating,morningglory; [4],3
same,Morningglory plant response rating,morningglory; [5],5
same,"Plant response rating, Morningglory",morningglory; [6],6
same,Redroot pigweed plant response rating,pigweed; [1],9
same,Redroot pigweed plant response rating (0 to 10 scale),"pigweed; Preemergence, Rate 125 g/ha",10
same,Redroot pigweed plant response rating,pigweed; [2],10
same,Redroot pigweed plant response rating,pigweed; [3],10
same,Redroot pigweed plant response rating,pigweed; [4],2
same,Redroot pigweed plant response rating,pigweed; [5],3
same,"Plant response rating, Redroot pigweed",pigweed; [6],6
